Measured values as given in article PMC3813382 (The Journal of General Physiology, 2013).
Where a chain is given by its changes, count along the chain named.

Tests used:
[1] = target: T1, WT Slo2.1 channels (Homo sapiens, UniProt Q6UVM3); assay: Activation of ISlo2.1 by NFA, two-electrode voltage clamp in oocytes; assay type: cell-based
T1 sequence (Q6UVM3 1-1135): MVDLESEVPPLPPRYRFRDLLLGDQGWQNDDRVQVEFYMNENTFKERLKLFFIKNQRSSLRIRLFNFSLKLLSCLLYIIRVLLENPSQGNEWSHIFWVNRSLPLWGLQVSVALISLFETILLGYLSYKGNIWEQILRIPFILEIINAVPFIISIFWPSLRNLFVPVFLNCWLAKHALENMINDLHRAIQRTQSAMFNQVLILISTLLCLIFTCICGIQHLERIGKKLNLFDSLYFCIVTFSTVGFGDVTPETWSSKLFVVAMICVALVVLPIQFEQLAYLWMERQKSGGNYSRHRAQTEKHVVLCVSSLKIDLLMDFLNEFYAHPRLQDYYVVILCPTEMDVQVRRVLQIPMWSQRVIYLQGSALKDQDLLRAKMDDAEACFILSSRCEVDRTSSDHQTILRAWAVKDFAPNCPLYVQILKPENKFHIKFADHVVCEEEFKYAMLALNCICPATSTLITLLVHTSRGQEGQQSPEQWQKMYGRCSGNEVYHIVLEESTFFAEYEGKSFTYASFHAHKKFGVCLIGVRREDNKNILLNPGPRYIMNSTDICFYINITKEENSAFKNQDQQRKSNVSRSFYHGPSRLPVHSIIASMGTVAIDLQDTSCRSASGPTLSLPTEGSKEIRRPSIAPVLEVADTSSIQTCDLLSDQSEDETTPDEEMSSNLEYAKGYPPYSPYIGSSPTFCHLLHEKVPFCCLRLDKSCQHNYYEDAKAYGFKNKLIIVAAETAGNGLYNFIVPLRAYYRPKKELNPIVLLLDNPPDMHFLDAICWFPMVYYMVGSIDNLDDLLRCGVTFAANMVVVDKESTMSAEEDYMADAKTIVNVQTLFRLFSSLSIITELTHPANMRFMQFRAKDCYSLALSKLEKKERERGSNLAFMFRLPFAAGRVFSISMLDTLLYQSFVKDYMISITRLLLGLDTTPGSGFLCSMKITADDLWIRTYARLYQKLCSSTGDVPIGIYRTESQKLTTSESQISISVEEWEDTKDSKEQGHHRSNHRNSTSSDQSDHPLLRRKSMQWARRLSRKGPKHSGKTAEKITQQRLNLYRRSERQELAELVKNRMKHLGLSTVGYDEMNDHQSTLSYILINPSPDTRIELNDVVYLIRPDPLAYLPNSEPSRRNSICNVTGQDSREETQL

[2] = target: T2, A266G Slo2.1 channels (Homo sapiens, UniProt Q6UVM3, A266G); assay: as above; assay type: cell-based
T2 sequence (Q6UVM3 1-1135 A266G): T1 sequence (Q6UVM3 1-1135) with A266G

EC50 [1]: 2100 ± 100 µM
time to peak response of ISlo2.1 during repetitive pulsing ([1]; 6 mM NFA, oocytes injected with ≤1 ng WT cRNA): ~3 min
EC50 [2]: 380 ± 30 µM
Hill coefficient nH of NFA activation ([2]; A266G): 1.2 ± 0.03
SMILES: O=C(O)c1cccnc1Nc1cccc(C(F)(F)F)c1 [NFA, niflumic acid]
